From patent US20110171274A1, “Fesoterodine Substantially Free of Dehydroxy Impurity” (ACTAVIS GROUP PTC EHF, priority 2008, published 2011)
Counter-ions that a name gives are not always drawn.

What was measured:
Type in all cases: physicochemical
[1] = Particle size distribution by laser diffraction (Malvern Master Sizer 2000); conditions: for Particle Size (D10) / Particle Size (D50) / Particle Size (D90): as crystallised from isopropyl alcohol / isopropyl ether
Text: As used herein, “Particle Size Distribution (PSD)” means the cumulative volume size distribution of equivalent spherical diameters as determined by laser diffraction in Malvern Master Sizer 2000 equipment or its equivalent. “Mean particle size distribution, i.e., (D50)” correspondingly, means the median of said particle size distribution.
The important characteristics of the PSD were the (D90), which is the size, in microns, below which 90% of the particles by volume are found, and the (D50), which is the size, in microns, below which 50% of the particles by volume are found.

[2] = Solubility of fesoterodine fumarate in solvents
[3] = Storage stability (crystalline form, lack of formation of impurities); conditions: about 25±2° C., relative humidity about 60±5%
Text: The term “remains stable”, as defined herein, refers to lack of formation of impurities, while being stored as described hereinbefore.

SMILES | Particle Size (D10) [1] | Particle Size (D50) [1] | Particle Size (D90) [1] | further results
CC(C)C(=O)Oc1ccc(CO)cc1[C@H](CCN(C(C)C)C(C)C)c1ccccc1 [Example 8, Fesoterodine Fumarate] | 4.518 μm | 22.291 μm | 85.415 μm | 
CC(C)C(=O)Oc1ccc(CO)cc1[C@H](CCN(C(C)C)C(C)C)c1ccccc1 [Example 7, Fesoterodine Fumarate] | 4.243 μm | 14.875 μm | 90.272 μm | 
CC(C)C(=O)Oc1ccc(CO)cc1[C@H](CCN(C(C)C)C(C)C)c1ccccc1 [Example 10, Fesoterodine fumarate] |  |  |  | diameter of 90 volume-% of the particles (D90) ([1]; after fine-milling in a grinder for 3-4 minutes): less than 50 microns
CC(C)C(=O)Oc1ccc(CO)cc1[C@H](CCN(C(C)C)C(C)C)c1ccccc1 [Fesoterodine fumarate, 2-[(1R)-3-[bis(1-methylethyl)amino]-1-phenylpropyl]-4-hydroxymethylphenyl isobutyrate] |  |  |  | solubility in aqueous solvents ([2]; aqueous solvents): freely soluble; solubility in heptane ([2]; heptane): practically insoluble; solubility in polar non protic solvents ([2]; polar non protic solvents (acetone, DMF, DMSO, acetonitrile)): soluble; solubility in polar protic organic solvents ([2]; some polar protic organic solvents (ethanol, methanol, glacial acetic acid, 2-propanol, propylene glycol)): soluble; solubility in toluene ([2]; toluene): slightly soluble; storage stability ([3]; 3 months): remains in the same crystalline form and stable; storage stability ([3]; at least one month): remains in the same crystalline form and stable
CC(C)C(=O)Oc1ccc(CO)cc1[C@H](CCN(C(C)C)C(C)C)c1ccccc1 [Example 9, Fesoterodine Fumarate] | 4.485 μm | 31.876 μm | 110.282 μm | 
